Experimental data taken from patent publication US20130053430A1, “MODULATION OF CETP EXPRESSION” (Isis Pharmaceuticals, Inc., priority 2010, published 2013).
e = 2'-O-(2-methoxyethyl) (MOE); d = 2'-deoxy (DNA)

Tests used:
[1] = tested on: human CETP mRNA; assay: Dose-dependent antisense inhibition of human CETP in SW872 liposarcoma cells (Example 2); type: cell-based; conditions: Lipofectin, ~16 hours (Example 2)
Procedure: Cells were plated at a density of 50,000 cells per well in a 24-well plate and transfected using Lipofectin reagent with 50 nM, 150 nM, and 300 nM concentrations of each antisense oligonucleotide. After approximately 16 hours, RNA was isolated from the cells and CETP mRNA levels were measured by quantitative real-time PCR. CETP mRNA levels were normalized to total RNA content, as measured by the house-keeping gene, GAPDH mRNA levels. Results are presented in Table 4 as percent inhibition of CETP, relative to untreated control cells.

[2] = tested on: CETP mRNA; assay: Liver CETP mRNA in huCETP transgenic mice on Western diet (Example 8); type: in vivo, human; conditions: 25 mg/kg s.c. twice per week for 2 weeks, relative to PBS control
Procedure: Male transgenic mice were maintained on a 12-hour light/dark cycle and were fed ad libitum the Western diet (TD88137; 42% cal from fat, 0.2% cholesterol; Harlan Laboratories, Indianapolis, Ind.). Animals were acclimated for at least 7 days in the research facility before initiation of the experiment and were maintained on this diet throughout the study period. Antisense oligonucleotides (ASOs) were prepared in phosphate buffered saline (PBS) and sterilized by filtering through a 0.2 micron filter. Oligonucleotides were dissolved in 0.9% PBS for injection.
(§1) The mice were divided into two groups of 4-6 mice each.
Twenty four hours after the final dose, the animals were sacrificed and liver tissue was isolated.
Liver RNA was isolated for real-time PCR analysis of CETP. The primer probe set hCETP was used to measure CETP levels. […] The RNA expression levels were normalized to murine Cyclophilin. The results are expressed as percent inhibition of CETP mRNA, relative to the PBS control.

[3] = Plasma cholesterol and triglyceride levels (Example 8); type: in vivo; conditions: huCETP transgenic mice, Western diet
Procedure: as §1
Plasma cholesterol were extracted at week 6 by the method of Bligh and Dyer (Bligh, E. G. and Dyer, W. J. Can. J. Biochem. Physiol. 37: 911-917, 1959) and measured with an Olympus clinical analyzer (Hitachi Olympus AU400e, Melville, N.Y.). HDL and LDL cholesterol were individually measured by HPLC. Triglyceride levels were measured with the use of a commercially available triglyceride kit (DCL Triglyceride Reagent; Diagnostic Chemicals Ltd., Charlottetown, Canada). The results are presented in Table 41 and are expressed in mg/dL.

[4] = Liver function, plasma ALT and AST (Example 8); type: in vivo; conditions: huCETP transgenic mice, Western diet; 25 mg/kg s.c. twice per week for 2 weeks
From the text: as §1

[5] = 25 mg/kg s.c. twice per week for 2 weeks

Substance: ISIS 349517: 5-10-5 MOE gapmer CAGCACTTTAATGCCAGTGG (sugars from the 5' end e5 d10 e5, backbone and methylation of C not given here)
- percent inhibition of CETP ([1]; 50 nM): 100%
- percent inhibition of CETP ([1]; 150 nM): 98%
- percent inhibition of CETP ([1]; 300 nM): 98%
- Percent inhibition of liver CETP mRNA expression [2]: 84%
- HDL % at week 0 [3, 5]: 39%
- HDL cholesterol [3, 5]: 155 mg/dL
- LDL Cholesterol [3, 5]: 48 mg/dL
- Total cholesterol [3, 5]: 212 mg/dL
- Triglycerides [3, 5]: 58 mg/dL
- increase in HDL levels compared to the PBS control ([3]; 25 mg/kg s.c. twice per week, on week 3): 30%
- Transaminase levels, ALT [4]: 26 IU/L
- Transaminase levels, AST [4]: 38 IU/L
